Reference: patent US10172797B2, “Extruded extended release abuse deterrent pill” (Pharmaceutical Manufacturing Research Services, Inc., priority 2013, dated 2019)

Experiments:
[1] = Alcohol solubility tested (200 proof ethanol, 0.22 micrometer PTFE filter); format: physicochemical
Description: The following table lists the relative solubility of exemplary components of a formulation. A number of different dyes are listed along with their solubility information taken from the various literature sources and tested experimentally (200 proof ethanol and filtered through a 0.22 micrometer PTFE filter).

[2] = cited from earlier work

COc1cc(S(=O)(=O)[O-])c(C)cc1N=Nc1c(O)ccc2cc(S(=O)(=O)[O-])ccc12.[Na+].[Na+] [Red #40]
Yes: Alcohol Solubility (tested) [1] | Alcohol Solubility (Literature) [2] | Water Solubility [2]

O=C([O-])C1=NN(c2ccc(S(=O)(=O)[O-])cc2)C(=O)C1N=Nc1ccc(S(=O)(=O)[O-])cc1.[Na+].[Na+].[Na+] (stereo not drawn) [Yellow #5]
Yes: Alcohol Solubility (tested) [1] | Alcohol Solubility (Literature) [2] | Water Solubility [2]

O=C1/C(=C2\Nc3ccc(S(=O)(=O)[O-])cc3C2=O)Nc2ccc(S(=O)(=O)[O-])cc21.[Na+].[Na+] [Blue #2]
Yes: Alcohol Solubility (tested) [1] | Alcohol Solubility (Literature) [2] | Water Solubility [2]

CCN(Cc1cccc(S(=O)(=O)[O-])c1)c1ccc(C(=C2C=CC(=[N+](CC)Cc3cccc(S(=O)(=O)[O-])c3)C=C2)c2ccccc2S(=O)(=O)[O-])cc1.[Na+].[Na+] [Blue #1]
Yes: Alcohol Solubility (tested) [1] | Alcohol Solubility (Literature) [2] | Water Solubility [2]
